For data set [1] the following is noted: literature [22, 23]; cited from earlier work.
The conditions of data set [2]: literature [22, 23]; cited from earlier work. The source holds these as a separate data set.
The nature of a further data set: Solubility observations. It is filed as physicochemical.
In a further data set the target is T1, Sirtuin 2 (Homo sapiens, UniProt Q8IXJ6).
T1 sequence (Q8IXJ6 1-389): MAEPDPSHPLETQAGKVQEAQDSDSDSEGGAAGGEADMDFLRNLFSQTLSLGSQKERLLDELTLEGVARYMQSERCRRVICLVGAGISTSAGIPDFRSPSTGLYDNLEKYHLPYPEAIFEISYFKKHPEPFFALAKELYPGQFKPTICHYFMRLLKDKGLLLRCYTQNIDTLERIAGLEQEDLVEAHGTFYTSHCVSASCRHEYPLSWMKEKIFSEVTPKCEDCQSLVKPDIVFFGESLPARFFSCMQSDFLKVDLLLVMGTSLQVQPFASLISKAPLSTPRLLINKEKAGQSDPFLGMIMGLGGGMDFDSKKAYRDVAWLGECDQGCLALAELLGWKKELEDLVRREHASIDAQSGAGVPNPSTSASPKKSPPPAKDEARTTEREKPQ
Put plainly: Sirtuin 2 fluorogenic activity assay.

The target in another data set is T2, Sirtuin 1 (Homo sapiens, UniProt Q96EB6).
T2 sequence (Q96EB6 1-747): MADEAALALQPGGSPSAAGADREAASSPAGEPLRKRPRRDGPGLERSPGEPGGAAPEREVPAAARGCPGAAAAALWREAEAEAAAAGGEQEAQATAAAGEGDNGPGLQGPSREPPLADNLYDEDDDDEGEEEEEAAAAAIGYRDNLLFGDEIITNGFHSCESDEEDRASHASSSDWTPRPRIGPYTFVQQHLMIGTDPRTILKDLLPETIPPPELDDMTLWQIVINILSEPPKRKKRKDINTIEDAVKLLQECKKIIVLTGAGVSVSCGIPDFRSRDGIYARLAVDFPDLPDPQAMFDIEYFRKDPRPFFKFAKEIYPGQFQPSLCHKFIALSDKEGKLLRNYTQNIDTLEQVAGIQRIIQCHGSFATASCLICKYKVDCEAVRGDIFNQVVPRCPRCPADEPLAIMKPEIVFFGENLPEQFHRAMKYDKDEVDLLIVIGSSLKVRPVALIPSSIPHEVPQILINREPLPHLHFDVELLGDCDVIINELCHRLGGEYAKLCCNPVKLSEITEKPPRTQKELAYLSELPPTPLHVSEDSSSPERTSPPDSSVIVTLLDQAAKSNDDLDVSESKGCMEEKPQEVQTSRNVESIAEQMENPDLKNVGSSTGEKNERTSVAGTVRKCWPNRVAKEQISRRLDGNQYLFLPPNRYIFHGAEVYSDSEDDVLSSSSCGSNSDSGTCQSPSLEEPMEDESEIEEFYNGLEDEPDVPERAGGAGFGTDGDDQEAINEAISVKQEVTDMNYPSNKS
Put plainly: Sirtuin 1 fluorogenic activity assay.

The conditions of data set [3]: literature [P48]; cited from earlier work.

Usually IC50 stands for the concentration that inhibits the measured activity by half. Low values mean inhibition by little substance, high ones a need for much substance.

In the case of `CCOc1ccccc1C(=O)Nc1ccc(Cl)c(C(F)(F)F)c1` [6J, N-(4-chloro-3-trifluoromethyl-phenyl)-2-ethoxy-benzamide], the solubility entry in data set [1] is given as “insoluble”. In data set [2], the membrane permeability entry was “membrane-impermeable”. The “solubility in H2O” value in “Solubility observations” is “no solubility”.
In the case of `CCCCCCCCCCCCCCCc1cccc(OCC)c1C(=O)Nc1ccc(Cl)c(C(F)(F)F)c1` [CTPB], the solubility entry in data set [1] is recorded as “insoluble”. In addition, the membrane permeability entry in data set [2] is reported as “membrane-impermeable”.
Take `O=C(CCCCCCC(=O)Nc1ccccc1)NO` [SAHA, reference compound]: the IC50 at Sirtuin 2 and against Sirtuin 1 was over 10 µM throughout.
With `Cc1cc(-c2ccccc2)nnc1NCCN1CCOCC1` [minaprine], in data set [3], the brain/blood ratio was over 2.

(Values after patent US10640457B2, “Histone acetyltransferase activators and uses thereof” (The Trustees of Columbia University in the City of New York, priority 2009, dated 2020).)
